From patent US6150414A, “Compositions and methods for treating viral infections” (priority 1992, dated 2000)
“And” between values parts separate entries of the source, which are not always exact repeats. Equal entries are not always repeated. Where two headings read alike, the source gives them in different places.

Tests used:
Friend Leukemia Virus [1] = assay: Inhibition of Friend Leukemia Virus-induced splenomegaly in mice, compounds intraperitoneally 24 hours after virus (Example 1(a)); format: in vivo, BALB/c mice; design: Actual Spleen Weight / Average Spleen Weight: unit not given here; conditions: Table III; for inhibition in vivo at 0.1 mg / inhibition in vivo at 0.05 mg / inhibition in vivo at 0.2 mg: Mus musculus, ip; for Pooled Average % Inhibition: pooled over 50, 100, 200, 2 × 100 micrograms
Excerpt: The effects of compositions according to the present invention on infection of mammals with Friend Leukemia Virus (FV) were examined.
Friend Leukemia Virus is an aggressive retrovirus which induces an acute erythroleukemia in sensitive strains of mice such as BALB/c and NIH swiss mice as described in Friend, C. J., Exp. Med. 105: 307-324, 1957; Friend, C. et al. Proc. Natl. Acad. Sci. USA 68: 378-383, 1971; Friend, C. et al. Natl. Cancer Inst. Mongr. 22: 508-552, 1966. The malignant transformation is the result of the combined activities of the Spleen Focus Forming Virus (SFFV) and the ecotropic Murine Friend Leukemia Helper Virus (F-MuLV). The acute erythroleukemia is characterized by hepatosplenomegaly (a marked increase in the size of the spleen and liver) and a severe anemia.
Friend Leukemia Virus was prepared by homogenizing the enlarged spleen of a mouse previously infected with FV, 10 days after intravenous virus injection. The spleen was homogenized in phosphate buffered saline in a volume equal to ten times the weight of the isolated spleen.
The effects of compositions according to the present invention on the increase in spleen size (splenomegaly) of BALB/c mice (Jackson Labs, Bar Harbor, ME) was examined. In these experiments, the virus (10^6 focus forming units--FFU) was inoculated intravenously and 100 micrograms of the compounds indicated in Table II were administered to the mice intraperitoneally 24 hours later. Each compound was administered once to two mice. The animals were sacrificed ten days later and their spleens weighed.
The present assay has been developed from similar assays using hypericin or pseudohypericin and employing higher numbers of experimental animals per group (e.g. 4 animals). It was discovered however that the specificity and sensitivity of this assay are such that an experimental group of two animals is of more than adequate predictive value.
As used in Table II (and subsequent Tables of this Example l(a) and (b), "average percent inhibition" is calculated as follows: [formula] wherein "ASWNC" designates "average spleen weight of negative control"; "ASWE" designates "average spleen weight of experimental (treated) subject"; and "ASWPC" designates "average spleen weight of positive control". Average spleen weight is the numerical average of spleen weights of each experimental group (in Table II each such group includes two members).
In these experiments, the virus (10^6 focus forming units--FFU) was inoculated intravenously, and the indicated doses of the antiviral compounds of this invention were administered to the BALB/c mice intraperitoneally 24 hours later. The animals were then sacrificed ten days later and their spleens weighed.
Pseudohypericin was diluted in phosphate buffered saline with 1% ethanol.
An expanded series of experiments was next performed in which various concentrations (i.e. 50, 100, 200 and 2×100, i.e., 100 micrograms administered twice) of a different set of PAC compounds (numbers 16-29 and 30-36 in Table III below) were administered intraperitoneally each according to the same protocol described above. Compounds 16-29 all had 3-5 fused, aromatic rings and no side groups except for oxygen or hydroxyl groups, whereas compounds 30-36 all had 3 fused aromatic rings and side chains selected from the group of oxygen, hydroxyl and methyl.
When 2 doses of the compounds were given, the second dose was administered 24-48 hours after the first injection. The animals were infected and splenomegaly determined as above for the compounds in Table II. In Table III, "pooled average percent inhibition" is calculated by adding the average percent inhibition for each experiment with the same compound and dividing the sum by the number of experiments (i.e. the number 4). […]

Friend Leukemia Virus [2] = assay: In vivo inhibition of Friend Leukemia Virus splenomegaly, intravenous 1-2 hours post infection (Example 10); design: species or system mice; conditions: Mus musculus, read-out: EC50 for FV-induced splenomegaly
Method: (3) In vivo inhibition of Friend Leukemia Virus Splenomegaly performed as described in Example 1 above except that the compounds were administered intravenously 1-2 hours post infection.
(§1) The results presented above in Table IX are presented as EC50 concentrations. These are the effective concentrations which inhibit 50% of the viruses in micromolar concentrations.

retroviruses (virions) = assay: Direct inactivation of retroviruses (virions) in vitro (Example 10); format: biochemical, Radiation Leukemia Virus; conditions: Table IX
Method: (§2) Supernatants (10 ml/tube) from B10.T(6R) cells (Meruelo et al. J. Exp. Med. 147: 470-487, 1978) chronically infected with Radiation Leukemia Virus (RadLV) were obtained by centrifugation of cells in culture at 4° C., 3500 rpm for 15 minutes. The top 2/3 of the supernatant were removed and aliquots were incubated for 30 minutes on ice with the indicated amounts of hypericin or protohypericin. […] Thereafter, supernatants were centrifuged at 100,000×g using a TI70 rotor (Beckman Instruments) for 1 hour at 4° C. The pellet was […] and analyzed for reverse transcriptase activity as follows.
(§3) The reverse transcriptase assay was performed in a volume of 100 microliters containing the following components:
(1) Direct inactivation of retroviruses in vitro, performed as in Example 3 above;
as §1

[3] = biological target: T1, Radiation Leukemia Virus reverse transcriptase (Radiation murine leukemia virus, UniProt P11227); assay: Radiation Leukemia Virus reverse transcriptase assay, supernatants from infected AQR cells (Examples 4 and 9); format: biochemical; conditions: for Average CPM / CPM / Average percent inhibition: Table VI; for CPM: replicate
T1 construct: the reverse transcriptase of Radiation Leukemia Virus; endogenous in cells
Method: as §2, §3
The antiviral activity of HHA was tested using AQR (Bach and Meruelo, J. Exp. Med. 160:270-285, 1984) cells chronically infected with Radiation Leukemia Virus in the reverse transcriptase assay as described in Example 3 above.
The assays were conducted using the same procedure as in Example 3 above, using supernatants from infected AQR cells.

O=C1c2ccccc2Cc2ccccc21 [Compound 30, Anthrone]
inhibition in vivo at 0.1 mg (Friend Leukemia Virus [1]; dose 2 × 100 (micrograms) i.p., read-out: Average Perdosage % Inhibition): 57% | inhibition in vivo at 0.05 mg (Friend Leukemia Virus [1]; dose 50 (micrograms) i.p., read-out: Average Perdosage % Inhibition): 31% | inhibition in vivo at 0.1 mg (Friend Leukemia Virus [1]; dose 100 (micrograms) i.p., read-out: Average Perdosage % Inhibition): 63% | inhibition in vivo at 0.2 mg (Friend Leukemia Virus [1]; dose 200 (micrograms) i.p., read-out: Average Perdosage % Inhibition): 62% | Average Spleen Weight (Friend Leukemia Virus [1]; dose 2 × 100 (micrograms) i.p.): 0.9878 | Average Spleen Weight (Friend Leukemia Virus [1]; dose 50 (micrograms) i.p.): 1.4953 | Average Spleen Weight (Friend Leukemia Virus [1]; dose 100 (micrograms) i.p.): 0.8790 | Average Spleen Weight (Friend Leukemia Virus [1]; dose 200 (micrograms) i.p.): 0.9092 | Pooled Average % Inhibition (Friend Leukemia Virus [1]): 53% | EC50 (Friend Leukemia Virus [2]; i.v. 1-2 hours post infection, Table IX): 267 µM | EC50 (retroviruses (virions)): > 51 µM

O=C1c2ccccc2C(=O)c2cc(CO)ccc21 [Compound 35, 2-(hydroxymethyl)-anthraquinone]
inhibition in vivo at 0.1 mg (Friend Leukemia Virus [1]; read-out: Average Perdosage % Inhibition, dose 2 × 100 (micrograms) i.p.): 75% | inhibition in vivo at 0.05 mg (Friend Leukemia Virus [1]; read-out: Average Perdosage % Inhibition, dose 50 (micrograms) i.p.): 62% | inhibition in vivo at 0.1 mg (Friend Leukemia Virus [1]; read-out: Average Perdosage % Inhibition, dose 100 (micrograms) i.p.): 64% | inhibition in vivo at 0.2 mg (Friend Leukemia Virus [1]; read-out: Average Perdosage % Inhibition, dose 200 (micrograms) i.p.): 77% | Average Spleen Weight (Friend Leukemia Virus [1]; dose 2 × 100 (micrograms) i.p.): 0.6575 | Average Spleen Weight (Friend Leukemia Virus [1]; dose 50 (micrograms) i.p.): 0.8921 | Average Spleen Weight (Friend Leukemia Virus [1]; dose 100 (micrograms) i.p.): 0.8615 | Average Spleen Weight (Friend Leukemia Virus [1]; dose 200 (micrograms) i.p.): 0.6086 | Pooled Average % Inhibition (Friend Leukemia Virus [1]): 70% | EC50 (Friend Leukemia Virus [2]): 145 µM | EC50 (retroviruses (virions)): > 41 µM

CC(=O)Oc1cc(C)c2c3c(C)cc(OC(C)=O)c4c(=O)c5c(OC(C)=O)cc(OC(C)=O)c6c7c(OC(C)=O)cc(OC(C)=O)c8c(=O)c1c2c(c87)c(c43)c56 [HHA, Hypericin hexaacetate]
Average CPM ([3]; 0.05 micrograms): 466,981 CPM | CPM ([3]; 0.05 micrograms): 441,410 CPM and 492,552 CPM | Average CPM ([3]; 0.1 micrograms): 202,454 CPM | Average percent inhibition ([3]; 0.1 micrograms): 54.8% | CPM ([3]; 0.1 micrograms): 208,882 CPM and 196,026 CPM | Average CPM ([3]; 0.5 micrograms): 501,386 CPM | CPM ([3]; 0.5 micrograms): 518,336 CPM and 484,356 CPM | Average CPM ([3]; 1 microgram): 451,634 CPM | CPM ([3]; 1 microgram): 401,306 CPM and 501,962 CPM | Average CPM ([3]; 5 micrograms): 205,891 CPM | Average percent inhibition ([3]; 5 micrograms): 54.1% | CPM ([3]; 5 micrograms): 221,098 CPM and 190,604 CPM | Average CPM ([3]; 10 micrograms): 91,440 CPM | Average percent inhibition ([3]; 10 micrograms): 79.6% | CPM ([3]; 10 micrograms): 96,654 CPM and 86,226 CPM | Average CPM ([3]; 50 micrograms): 5,305 CPM | Average percent inhibition ([3]; 50 micrograms): 98.8% | CPM ([3]; 50 micrograms): 5,236 CPM and 5,374 CPM | Average CPM ([3]; 100 micrograms): 2,545 CPM | Average percent inhibition ([3]; 100 micrograms): 99.4% | CPM ([3]; 100 micrograms): 2,750 CPM and 2,340 CPM | inhibition of RadLV reverse transcriptase activity ([3]; Example 4): about as active a protohypericin in inhibiting the RadLV reverse transcriptase activity | EC50 (Friend Leukemia Virus [2]): > 199 µM | EC50 (retroviruses (virions)): 12.9 µM
